Results as given in ChEMBL document CHEMBL1201862, “PubChem BioAssay data set” (2004).
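48-hour exposure; five concentrations; linearly interpolated endpoints. At the GI50, growth is halved.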 Calls of active or inactive are those of the source. Rule as the data show it: active = GI50 up to about 1.1 µM and inactive = higher.

Key:
Experiment in all cases: NCI anticancer screen, dose series, 48 h
NCI-H460 = tested on: NCI-H460
SK-MEL-5 = tested on: SK-MEL-5
SR = tested on: SR
KM12 = tested on: KM12
SNB-75 = tested on: SNB-75
M14 = tested on: M14
ACHN = tested on: ACHN
SN12C = tested on: SN12C
U-251 = tested on: U-251
HOP-92 = tested on: HOP-92
A498 = tested on: A498
COLO 205 = tested on: COLO 205
SNB-19 = tested on: SNB-19
NCI-H23 = tested on: NCI-H23
EKVX = tested on: EKVX
MCF7 = tested on: MCF7
Hs-578T = tested on: Hs-578T
NCI/ADR-RES = tested on: NCI/ADR-RES
LOX IMVI = tested on: LOX IMVI
MDA-MB-435 = tested on: MDA-MB-435

Measured: GI50

O=c1c2cc(Br)cc(Br)c2nc(CCCl)n1-c1ccc(O)c([N+](=O)[O-])c1
inactive: NCI-H460 21 µM | SK-MEL-5 20.1 µM | SR 41.5 µM | KM12 18.5 µM | SNB-75 19.8 µM | M14 17.2 µM | ACHN 19.7 µM | SN12C 17.6 µM | U-251 18.4 µM | HOP-92 24 µM | A498 25.8 µM | COLO 205 21 µM | SNB-19 20.1 µM | NCI-H23 21.7 µM | EKVX 34.5 µM

Cc1ccc(N(C(=O)Nc2ccccc2)C2=NCC(C)S2)cc1C (configuration not stated)
inactive: NCI-H460 18 µM | SK-MEL-5 17 µM | SR 23.7 µM | MCF7 12.8 µM | KM12 17.8 µM | SNB-75 24.4 µM | M14 13.4 µM | Hs-578T 23.2 µM | ACHN 28.7 µM | SN12C 13.7 µM | NCI/ADR-RES 14.8 µM | U-251 19.3 µM | HOP-92 22.5 µM | A498 14 µM | COLO 205 19.4 µM | SNB-19 33.3 µM | NCI-H23 15.7 µM | EKVX 17.9 µM | LOX IMVI 16.6 µM

COC(=O)CNC(=O)CSc1nnc(COc2ccc(Cl)cc2)n1-c1ccccc1
inactive: NCI-H460 56.8 µM | MDA-MB-435 20.8 µM | MCF7 79.6 µM | KM12 56.9 µM | SNB-75 17.3 µM | M14 37.3 µM | ACHN 24 µM | SN12C 19.8 µM | NCI/ADR-RES > 100 µM | U-251 38.6 µM | HOP-92 31.8 µM | A498 > 100 µM | COLO 205 > 100 µM | SNB-19 > 100 µM | NCI-H23 40.3 µM | EKVX > 100 µM | LOX IMVI 31.3 µM

CCOc1ccccc1N1CSc2nnc(-c3ccccc3)n2C1
inactive: NCI-H460 > 100 µM | MDA-MB-435 > 100 µM | SK-MEL-5 > 100 µM | SR 44.4 µM | MCF7 97.3 µM | KM12 > 100 µM | M14 > 100 µM | ACHN > 100 µM | SN12C > 100 µM | NCI/ADR-RES > 100 µM | U-251 > 100 µM | HOP-92 > 100 µM | A498 > 100 µM | COLO 205 68.1 µM | NCI-H23 > 100 µM

CC(=O)O[C@H]1CC[C@@]2(C)C(=CC[C@H]3[C@@H]4C/C(=C\c5ccc(N(C)C)cc5)[C@H](OC(C)=O)[C@@]4(C)CC[C@@H]32)C1
inactive: NCI-H460 5.19 µM | SK-MEL-5 12.5 µM | SR 4.1 µM | MCF7 7.62 µM | KM12 11.9 µM | SNB-75 15.8 µM | M14 14.2 µM | Hs-578T 3.72 µM | ACHN 8.71 µM | SN12C 14.7 µM | NCI/ADR-RES 13.1 µM | U-251 6.71 µM | A498 18.9 µM | COLO 205 4.54 µM | SNB-19 13 µM | NCI-H23 13.1 µM | EKVX 8.69 µM | LOX IMVI 8.91 µM

O=C1CSC(=S)N1 [RHODANINE]
inactive: NCI-H460 > 100 µM | SK-MEL-5 > 100 µM | SR > 100 µM | MCF7 > 100 µM | KM12 > 100 µM | SNB-75 > 100 µM | M14 > 100 µM | Hs-578T > 100 µM | ACHN > 100 µM | SN12C > 100 µM | NCI/ADR-RES > 100 µM | U-251 > 100 µM | HOP-92 > 100 µM | COLO 205 > 100 µM | SNB-19 > 100 µM | NCI-H23 > 100 µM | EKVX > 100 µM | LOX IMVI > 100 µM

COC(=O)CCC(=O)C(CC(=O)OC)C(=O)CCC(=O)NCCc1ccccc1 (configuration not stated)
inactive: NCI-H460 > 100 µM | SK-MEL-5 > 100 µM | SR > 100 µM | KM12 > 100 µM | SNB-75 > 100 µM | M14 > 100 µM | ACHN > 100 µM | SN12C > 100 µM | U-251 > 100 µM | HOP-92 > 100 µM | A498 > 100 µM | COLO 205 > 100 µM | SNB-19 > 100 µM | NCI-H23 > 100 µM | EKVX > 100 µM | LOX IMVI > 100 µM

O/N=C1\SC(=N\O)/C(=N/O)S\C1=N/O
inactive: NCI-H460 > 100 µM | MDA-MB-435 > 100 µM | SK-MEL-5 38.7 µM | SR 38.2 µM | MCF7 > 100 µM | KM12 79.4 µM | SNB-75 > 100 µM | M14 > 100 µM | ACHN > 100 µM | SN12C > 100 µM | NCI/ADR-RES > 100 µM | U-251 > 100 µM | HOP-92 > 100 µM | A498 > 100 µM | COLO 205 > 100 µM | SNB-19 > 100 µM | NCI-H23 76.6 µM | EKVX > 100 µM | LOX IMVI > 100 µM
